Source: ChEMBL document CHEMBL1201862, “PubChem BioAssay data set” (2004)
Activity calls are given as the source filed them. Rule as the data show it: actives have a measured IC50 and inactives only a lower limit.

Molecular target: Envelope glycoprotein gp160 (Human immunodeficiency virus 1, UniProt Q6QLK5)
Experiment: inhibitors of HIV fusion peptide binding, primary screen, biochemical, uHTS, fluorescence dequenching (AID 1986)

Envelope glycoprotein gp160, sequence (Q6QLK5 whole entry, the tested form may be a part): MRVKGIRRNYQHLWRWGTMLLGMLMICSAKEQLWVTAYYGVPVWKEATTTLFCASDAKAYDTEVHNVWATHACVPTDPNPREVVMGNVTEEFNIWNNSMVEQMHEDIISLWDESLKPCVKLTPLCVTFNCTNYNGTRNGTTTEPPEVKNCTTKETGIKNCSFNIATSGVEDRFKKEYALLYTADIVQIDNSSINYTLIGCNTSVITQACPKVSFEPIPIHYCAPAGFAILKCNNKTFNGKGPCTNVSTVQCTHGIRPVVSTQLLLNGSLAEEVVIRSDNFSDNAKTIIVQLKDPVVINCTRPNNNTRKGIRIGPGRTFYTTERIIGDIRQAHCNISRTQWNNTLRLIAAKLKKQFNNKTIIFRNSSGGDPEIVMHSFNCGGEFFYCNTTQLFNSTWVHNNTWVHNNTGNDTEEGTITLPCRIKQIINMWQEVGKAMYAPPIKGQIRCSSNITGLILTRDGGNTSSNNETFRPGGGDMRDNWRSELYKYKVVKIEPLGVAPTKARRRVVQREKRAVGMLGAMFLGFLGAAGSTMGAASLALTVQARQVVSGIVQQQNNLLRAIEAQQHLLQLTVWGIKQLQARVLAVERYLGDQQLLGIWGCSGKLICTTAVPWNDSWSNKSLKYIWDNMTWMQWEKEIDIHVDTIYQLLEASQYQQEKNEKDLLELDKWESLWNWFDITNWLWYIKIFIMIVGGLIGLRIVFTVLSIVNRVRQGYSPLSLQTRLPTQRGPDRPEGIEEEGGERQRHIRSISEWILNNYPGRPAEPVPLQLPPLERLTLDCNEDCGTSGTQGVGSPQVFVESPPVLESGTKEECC

Row | Structure (SMILES) | IC50
1 | O=C(O)/C=C/C(=O)Nc1ccc(C2(c3ccc(NC(=O)/C=C/C(=O)O)cc3)c3ccccc3-c3ccccc32)cc1 | 15 µM (active)
2 | O=C(COc1cccc2ccccc12)Nc1ccc(Cl)cc1C(=O)O | 31.3 µM (active)
3 | O=C(O)C(c1ccccc1)N1C(=O)/C(=C\c2ccc(O)c(O)c2)SC1=S (stereo unspecified) | 13.2 µM (active)
4 | Cc1ccc(Cl)cc1N1CCN(C(=O)Cc2c(C(=O)O)[nH]c3ccc(Cl)cc23)CC1 | 24.5 µM (active)
5 | Cc1ccc(N2C(=O)/C(=C/c3ccc(CN(CCC#N)S(C)(=O)=O)o3)C(=O)NC2=S)cc1C | 21.6 µM (active)
6 | COc1ccc2c(c1)cc(C(=O)N/N=C/c1c(O)c(C(=O)O)cc3ccccc13)n2C | 7.59 µM (active)
